Measurements reported in patent US8133884B2, “Compounds for the treatment of hepatitis C” (priority 2008, dated 2012).

Columns and labels:
[1] = target: T1, HCV NS5B (Hepatitis C virus genotype 1b, UniProt Q9WMX2); test: Modified HCV NS5B RdRp enzyme assay (preincubation protocol); format: biochemical; conditions: class symbol
T1 construct: The protein was expressed with an 18 amino acid C-terminal truncation to enhance the solubility; made in house; host or cells: E. coli BL21(DE3)
Experimental: The cDNA encoding the NS5B protein of HCV, genotype 1b, was cloned into the pET21a expression vector. The protein was expressed with an 18 amino acid C-terminal truncation to enhance the solubility. The E. coli competent cell line BL21(DE3) was used for expression of the protein. Cultures were grown at 37° C. for ˜4 hours until the cultures reached an optical density of 2.0 at 600 nm. The cultures were cooled to 20° C. and induced with 1 mM IPTG. Fresh ampicillin was added to a final concentration of 50 μg/ml and the cells were grown overnight at 20° C.
Cell pellets (3 L) were lysed for purification to yield 15-24 mgs of purified NS5B. The lysis buffer consisted of 20 mM Tris-HCl, pH 7.4, 500 mM NaCl, 0.5% triton X-100, 1 mM DTT, 1 mM EDTA, 20% glycerol, 0.5 mg/ml lysozyme, 10 mM MgCl2, 15 ug/ml deoxyribonuclease I, and Complete TM protease inhibitor tablets (Roche). After addition of the lysis buffer, frozen cell pellets were resuspended using a tissue homogenizer. To reduce the viscosity of the sample, aliquots of the lysate were sonicated on ice using a microtip attached to a Branson sonicator. The sonicated lysate was centrifuged at 100,000×g for 1 hr at 4° C. and filtered through a 0.2 μm filter unit (Corning).
The protein was purified using three sequential chromatography steps: Heparin sepharose CL-6B, polyU sepharose 4B, and […] SP sepharose (Pharmacia). The chromatography buffers were identical to the lysis buffer but contained no lysozyme, deoxyribonuclease I, MgCl2 or protease inhibitor and the NaCl concentration of the buffer was adjusted according to the requirements for charging the protein onto the column. Each column was eluted with a NaCl gradient which varied in length from 5-50 column volumes depending on the column type. After the final chromatography step, the resulting purity of the enzyme is >90% based on SDS-PAGE analysis. The enzyme was aliquoted and stored at −80° C.
HCV RdRp genotype 1b assays were run in a final volume of 60 μl in 96 well plates (Costar 3912). The assay buffer is composed of 20 mM Hepes, pH 7.5, 2.5 mM KCl, 2.5 mM MgCl2, 1 mM DTT, 1.6 U RNAse inhibitor (Promega N2515), 0.1 mg/ml BSA (Promega R3961), and 2% glycerol. All compounds were serially diluted (3-fold) in DMSO and diluted further in water such that the final concentration of DMSO in the assay was 2%. HCV RdRp genotype 1b enzyme was used at a final concentration of 28 nM. A polyA template was used at 6 nM, and a biotinylated oligo-dT12 primer was used at 180 nM final concentration. Template was obtained commercially (Amersham 27-4110). Biotinylated primer was prepared by Sigma Genosys. 3H-UTP was used at 0.6 μCi (0.29 μM total UTP). Reactions were initiated by the addition of enzyme, incubated at 30° C. for 60 min, and stopped by adding 25 μl of 50 mM EDTA containing SPA beads (4 μg/μl, Amersham RPNQ 0007). Plates were read on a Packard TOPCOUNT® NXT after >1 hr incubation at room temperature.
A modified enzyme assay was performed essentially as described for the standard enzyme assay except for the following: The biotinylated oligo dT12 primer was precaptured on streptavidin-coated SPA beads by mixing primer and beads in assay buffer and incubating at room temperature for one hour. Unbound primer was removed after centrifugation. The primer-bound beads were resuspended in 20 mM Hepes buffer, pH 7.5 and used in the assay at final concentrations of 20 nM primer and 0.67 μg/μl beads. Order of addition in the assay: enzyme (14 nM) was added to diluted compound followed by the addition of a mixture of template (0.2 nM), 3H-UTP (0.6 μCi, 0.29 μM), and primer-bound beads, to initiate the reaction; concentrations given are final. Reactions were allowed to proceed for 4 hours at 30° C.
IC50 values for compounds were determined using seven different [I]. IC50 values were calculated from the inhibition using the formula y=A+((B−A)/(1+((C/x)^D))).

[2] = test system: HCV replicon; test: HCV replicon assay (FRET or luciferase reporter); format: cell-based; conditions: Hepatitis C virus, one of the methods described
Excerpt: To perform the HCV FRET screening assay, 96-well cell culture plates were used, The FRET peptide (Anaspec, Inc.) (Taliani et al., Anal. Biochem., 240:60-67 (1996)) contains a fluorescence donor, EDANS, near one end of the peptide and an acceptor, DABCYL, near the other end. The fluorescence of the peptide is quenched by […] resonance energy transfer (RET) between the donor and the acceptor, but as the NS3 protease cleaves the peptide the products are released from RET quenching and the fluorescence of the donor becomes apparent. The assay reagent was made as follows: 5× cell Luciferase cell culture lysis reagent from Promega (#E153A) diluted to 1× with dH2O, NaCl added to 150 mM final, the FRET peptide diluted to 20 μM final from a 2 mM stock.
To prepare plates, HCV replicon cells, with or without a Renilla luciferase reporter gene, were trypsinized and placed into each well of a 96-well plate with titrated test compounds added in columns 3 through 12; columns 1 and 2 contained a control compound (HCV protease inhibitor), and the bottom row contained cells without compound. The plates were then placed in a CO2 incubator at 37° C.
Subsequent to addition of the test compounds described above (FRET Assay Preparation), at various times the plate was removed and Alamar blue solution (Trek Diagnostics, #00-100) was added per well as a measure of cellular toxicity. After reading in a CYTOFLUOR® 4000 instrument (PE Biosystems), plates were rinsed with PBS and then used for FRET assay by the addition of 30 ul of the FRET peptide assay reagent described above (FRET Assay Preparation) per well. The plate was then placed into the CYTOFLUOR® 4000 instrument which had been set to 340 excite/490 emission, automatic mode for 20 cycles and the plate read in a kinetic mode. Typically, the signal to noise using an endpoint analysis after the reads was at least three-fold. Alternatively, after Alamar blue reading, plates were rinsed with PBS, 50 ul of DMEM (high glucose) without phenol red was added and plates were then used for luciferase assay using the Promega DUAL-GLO® Luciferase Assay System.
Compound analysis was determined by quantification of the relative HCV replicon inhibition and the relative cytotoxicity values. To calculate cytoxicity values, the average Alamar Blue fluorescence signals from the control wells were set as 100% non-toxic. The individual signals in each of the compound test wells were then divided by the average control signal and multiplied by 100% to determine […]. To calculate the HCV replicon inhibition values, an average background value was obtained from the two wells containing the highest amount of HCV protease inhibitor at the end of the assay period. These numbers were similar to those obtained from naïve Huh-7 cells.
The background numbers were then subtracted from the average signal obtained from the control wells and this number was used as 100% activity. The individual signals in each of the compound test wells were then divided by the averaged control values after background subtraction and multiplied by 100% to determine percent activity. EC50 values for a protease inhibitor titration were calculated as the concentration which caused a 50% reduction in FRET or luciferase activity. The two numbers generated for the compound plate, percent cytoxicity and percent activity were used to determine compounds of interest for further analysis.
The HCV replicon luciferase assay was developed to monitor the inhibitory effects of compounds described in the disclosure on HCV viral replication. Utilization of a replicon luciferase reporter assay was first described by Krieger et al (Krieger, N. et al., J. Virology, 75(10):4614-4624 (2001)). HUH-7 cells, constitutively expressing the HCV replicon, were grown in Dulbecco's Modified Eagle Media (DMEM) (Gibco-BRL) containing 10% Fetal calf serum (FCS) (Sigma) and 1 mg/ml G418 (Gibco-BRL). […]

T1 sequence (Q9WMX2 2420-2992): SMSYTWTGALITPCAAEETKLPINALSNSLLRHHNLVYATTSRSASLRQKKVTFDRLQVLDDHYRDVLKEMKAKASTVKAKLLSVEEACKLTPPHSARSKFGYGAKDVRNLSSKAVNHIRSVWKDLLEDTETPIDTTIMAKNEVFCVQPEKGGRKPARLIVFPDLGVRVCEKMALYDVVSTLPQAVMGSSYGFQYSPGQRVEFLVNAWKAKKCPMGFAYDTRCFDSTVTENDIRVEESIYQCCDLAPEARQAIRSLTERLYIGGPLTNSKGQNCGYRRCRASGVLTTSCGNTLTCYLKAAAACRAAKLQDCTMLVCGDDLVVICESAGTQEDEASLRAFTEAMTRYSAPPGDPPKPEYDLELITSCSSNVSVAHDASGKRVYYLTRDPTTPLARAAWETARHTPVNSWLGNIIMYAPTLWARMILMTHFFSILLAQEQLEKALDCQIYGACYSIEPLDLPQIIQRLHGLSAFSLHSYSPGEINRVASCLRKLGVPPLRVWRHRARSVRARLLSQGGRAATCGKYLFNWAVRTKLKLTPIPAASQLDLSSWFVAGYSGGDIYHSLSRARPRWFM

COc1ccc2c(c1)C=C(c1c(C(=O)N3C4CCC3CC(C)(O)C4)cnn1C1CCC1)Cn1c-2c(C2CCCCC2)c2ccc(C(=O)NS(=O)(=O)C(C)C)cc21 (centres unmarked)
IC50 [1]: 1.7 to 500 nM | EC50 ([2]; class symbol): 1.7 to 500 nM

COc1ccc2c(c1)C=C(c1c(C(=O)N3C4CCC3CN(C)C4)c(C)nn1C1CCC1)Cn1c-2c(C2CCCCC2)c2ccc(C(=O)NS(=O)(=O)C(C)C)cc21
IC50 [1]: 1.7 to 500 nM | EC50 ([2]; class symbol): 1.7 to 500 nM

COc1ccc2c(c1)C=C(c1c(C(=O)N3CCN(C)CC3)cnn1C1CCC1)Cn1c-2c(C2CCCCC2)c2ccc(C(=O)NS(=O)(=O)C(C)C)cc21
IC50 [1]: 1.7 to 500 nM | EC50 ([2]; class symbol): 1.7 to 500 nM

COc1ccc2c(c1)C=C(c1c(C(=O)N3C[C@@H](C)O[C@@H](C)C3)cnn1C1CCOCC1)Cn1c-2c(C2CCCCC2)c2ccc(C(=O)NS(=O)(=O)CC(C)C)cc21
IC50 [1]: 1.7 to 500 nM | EC50 ([2]; class symbol): 1.7 to 500 nM

COc1ccc2c(c1)C=C(c1c(C(=O)N3C[C@@H](C)O[C@@H](C)C3)ncn1C1CC1)Cn1c-2c(C2CCCCC2)c2ccc(C(=O)NS(=O)(=O)C(C)C)cc21
IC50 [1]: 1.7 to 500 nM | EC50 ([2]; class symbol): 1.7 to 500 nM

COc1ccc2c(c1)C=C(c1c(C(=O)N3CC4CCC(C3)N4C)cnn1C1CCOCC1)Cn1c-2c(C2CCCCC2)c2ccc(C(=O)NS(=O)(=O)CC(C)C)cc21
IC50 [1]: 1.7 to 500 nM | EC50 ([2]; class symbol): 1.7 to 500 nM

COc1ccc2c(c1)C=C(c1c(C(=O)N3C[C@]4(C)CN(C)C[C@](C)(C3)C4)cnn1C1CCC1)Cn1c-2c(C2CCCCC2)c2ccc(C(=O)NS(=O)(=O)C(C)C)cc21
IC50 [1]: 1.7 to 500 nM | EC50 ([2]; class symbol): 1.7 to 500 nM

CCOC(=O)c1cnn(C2CCOCC2)c1C1=Cc2cc(OC)ccc2-c2c(C3CCCCC3)c3ccc(C(=O)NS(=O)(=O)CC(C)C)cc3n2C1
IC50 [1]: 1.7 to 500 nM

COc1ccc2c(c1)C=C(c1c(C(=O)N3CCOCC4(CNC4)C3)cnn1C1CCC1)Cn1c-2c(C2CCCCC2)c2ccc(C(=O)NS(=O)(=O)C(C)C)cc21
EC50 ([2]; class symbol): 1.7 to 500 nM | EC50 ([2]; exact value): 350 nM

COc1ccc2c(c1)C=C(c1c(C(=O)N3C4CCC3CN(C)C4)c(C)nn1C1CCC1)Cn1c-2c(C2CCCCC2)c2ccc(C(=O)NS(=O)(=O)N(C)C)cc21
IC50 [1]: 1.7 to 500 nM | EC50 ([2]; class symbol): 1.7 to 500 nM

CCOC(=O)c1cnn(C2CCN(C)CC2)c1C1=Cc2cc(OC)ccc2-c2c(C3CCCCC3)c3ccc(C(=O)O)cc3n2C1
IC50 [1]: 1.7 to 500 nM | EC50 ([2]; class symbol): 1.7 to 500 nM

CCN1CC2CC1CN2C(=O)c1c(C2=Cc3cc(OC)ccc3-c3c(C4CCCCC4)c4ccc(C(=O)NS(=O)(=O)C(C)C)cc4n3C2)ncn1C1CC1 (centres unmarked)
IC50 [1]: 1.7 to 500 nM

COc1ccc2c(c1)C=C(c1c(C(=O)O)cnn1C1CCOCC1)Cn1c-2c(C2CCCCC2)c2ccc(C(=O)NS(=O)(=O)CC(C)C)cc21
IC50 [1]: 1.7 to 500 nM

CCOC(=O)c1cnn(C2CCC2)c1C1=Cc2cc(OC)ccc2-c2c(C3CCCCC3)c3ccc(C(=O)NS(=O)(=O)CC(C)C)cc3n2C1
IC50 [1]: 1.7 to 500 nM

CCOC(=O)c1cnn(C2CCC2)c1C1=Cc2cc(OC)ccc2-c2c(C3CCCCC3)c3ccc(C(=O)NS(=O)(=O)C(C)C)cc3n2C1
IC50 [1]: 1.7 to 500 nM

CCOC(=O)c1cnn(C2CCC2)c1C1=Cc2cc(OC)ccc2-c2c(C3CCCCC3)c3ccc(C(=O)OC(C)(C)C)cc3n2C1
IC50 [1]: > 500 nM

COc1ccc2c(c1)C=C(c1c(C(=O)O)cnn1C1CCC1)Cn1c-2c(C2CCCCC2)c2ccc(C(=O)NS(=O)(=O)CC(C)C)cc21
IC50 [1]: 1.7 to 500 nM

CCOC(=O)c1cnn(C2CCOCC2)c1C1=Cc2cc(OC)ccc2-c2c(C3CCCCC3)c3ccc(C(=O)O)cc3n2C1
IC50 [1]: 1.7 to 500 nM

COc1ccc2c(c1)C=C(c1c(C(=O)O)noc1C1CC1)Cn1c-2c(C2CCCCC2)c2ccc(C(=O)NS(=O)(=O)N(C)C)cc21
EC50 ([2]; class symbol): 1.7 to 500 nM

COc1ccc2c(c1)C=C(c1ncn(C3CC3)c1C(=O)N1C[C@@H](C)O[C@@H](C)C1)Cn1c-2c(C2CCCCC2)c2ccc(C(=O)NS(=O)(=O)C(C)C)cc21
EC50 ([2]; class symbol): 1.7 to 500 nM

COc1ccc2c(c1)C=C(c1c(C(=O)O)cnn1C1CCC1)Cn1c-2c(C2CCCCC2)c2ccc(C(=O)NS(=O)(=O)C(C)C)cc21
IC50 [1]: 1.7 to 500 nM

COc1ccc2c(c1)C=C(c1c(C(=O)N3CC4CCC3CN4)cnn1C1CCC1)Cn1c-2c(C2CCCCC2)c2ccc(C(=O)NS(=O)(=O)C(C)C)cc21 (centres unmarked)
EC50 ([2]; class symbol): 1.7 to 500 nM

CCOC(=O)c1cnn(C2CCOCC2)c1C1=Cc2cc(OC)ccc2-c2c(C3CCCCC3)c3ccc(C(=O)NS(=O)(=O)C(C)C)cc3n2C1
IC50 [1]: 1.7 to 500 nM

COc1ccc2c(c1)C=C(c1c(C(=O)O)cnn1C1CCOCC1)Cn1c-2c(C2CCCCC2)c2ccc(C(=O)NS(=O)(=O)C(C)C)cc21
IC50 [1]: 1.7 to 500 nM

COc1ccc2c(c1)C=C(c1c(C(=O)N3CCCN(C)CC3)cnn1C1CCC1)Cn1c-2c(C2CCCCC2)c2ccc(C(=O)NS(=O)(=O)C(C)C)cc21
IC50 [1]: 1.7 to 500 nM
